From patent US20200129524A1, “PERSONALIZED CONTRACEPTIVE FORMULATIONS” (Agile Therapeutics, Inc., priority 2017, published 2020)
“And” between values parts separate entries of the source, which are not always exact repeats. Equal values may be shown once.

Experiments:
[1] = cited from earlier work
healthy women = assay: LNG level and required dose calculated from the trial's pregnancy rates (equations 2-4); assay type: in vivo; settings: for LNG Level / Required Dose: 30 μg/day EE; for LNG Required Dose: range for pregnancy rates between 3% and 1.5%, EE 30 ug/day
Description: There is an important unmet need pertaining to the determination of the amount of progestin required to provide contraceptive effectiveness to all women based on their BMI or body weight. Without intending to be bound to a particular understanding of mechanism of action, this invention is premised in part on the understanding that contraceptive effectiveness is based on the principle that there is a physical reaction or binding of a drug to its receptor and that therefore drug concentration will play an important part in contraceptive effectiveness. Further, by knowing the effect of a progestin amount (drug concentration) on contraceptive effectiveness on different BMI or body weight women, we can determine the amounts needed to provide effectiveness for any woman of known BMI or body weight. Given that contraceptive hormones interact reversibly with their receptors and assuming the resultant effect is proportional to the receptors occupied, a relationship between the effect and the free concentration of drug can be written as (Goodman and Gilman's Pharmaceutical Basis of Therapeutics, 8th edition, p. 44) Effect=Maximal effect (D)/(Kd+D) (equation 1) Where D is the concentration of the circulating free drug and Kd is the dissociation constant for the drug-drug receptor complex, i.e., the ratio of the rate constants of the forward and dissociation binding reactions. The steady state concentration D of the circulating free drug in the plasma is correlated to the dosage rate, by the equation (Goodman and Gilman's Pharmaceutical Basis of Therapeutics, 8th edition, p. 21), Dosage Rate=CL×D (CL is the clearance and it is constant for any specific drug). Therefore D=Dosage rate/CL. Substituting this in equation 1 one obtains Effect=Maximal effect×Dosage rate/CL/(Kd+Dosage rate/CL) (equation 2) […] Note that when equation 3 is substituted into equation 2 the clearance CL cancels out and is not involved in the calculations. Using the above formulas and isolating for D yields this equation: D=(Kd*Effect)/(1−Effect) (equation 4) […] They represent the relative dosage compared to that of the women in the 90 to 120 pound category (i.e. those that had 1.5% pregnancy rate). […] Therefore, D=(1.827*0.973)/(0.027) (equation 5) D=67 μg/day (equation 6) Required Dose=120×120/67=215 (equation 7). We consider the maximum acceptable percent pregnancy for 100 women over a period of one year to be 3%. […] The same analysis can be performed using the BMI of the women. […] The same analysis as performed for the required dosage based on women's body weight was performed using BMI and the data are shown in Tables 4 and 5 and plotted in FIG. 4. Although it may be easier for the medical practitioner to use the body weight of the subject in the treatment process, they can also use the BMI. It is therefore another object of the invention to treat women in a personalized manner depending on their BMI.

[2] = 1.5% pregnancy rate, BMI >17.5 ≤ 22.5
[3] = 1.5% pregnancy rate, BMI >22.5 ≤ 27.5
[4] = 1.5% pregnancy rate, BMI >27.5 ≤ 32.5
[5] = 1.5% pregnancy rate, BMI >32.5 ≤ 37.5
[6] = 1.5% pregnancy rate, BMI >37.5 ≤ 42.5
[7] = 1.5% pregnancy rate, BMI >42.5 ≤ 47.5
[8] = 1.5% pregnancy rate, BMI >47.5 ≤ 52.5
[9] = 1.5% pregnancy rate, weight 90 ≥ W <120 lbs
[10] = 1.5% pregnancy rate, weight 120 ≥ W <150 lbs
[11] = 1.5% pregnancy rate, weight 150 ≥ W <180 lbs
[12] = 1.5% pregnancy rate, weight 180 ≥ W <210 lbs
[13] = 1.5% pregnancy rate, weight 210 ≥ W <240 lbs
[14] = 1.5% pregnancy rate, weight 240 ≥ W <270 lbs
[15] = 1.5% pregnancy rate, weight 270 ≥ W lbs
[16] = 3% pregnancy rate, BMI >17.5 ≤ 22.5
[17] = 3% pregnancy rate, BMI >22.5 ≤ 27.5
[18] = 3% pregnancy rate, BMI >27.5 ≤ 32.5
[19] = 3% pregnancy rate, BMI >32.5 ≤ 37.5
[20] = 3% pregnancy rate, BMI >37.5 ≤ 42.5
[21] = 3% pregnancy rate, BMI >42.5 ≤ 47.5
[22] = 3% pregnancy rate, BMI >47.5 ≤ 52.5
[23] = 3% pregnancy rate, weight 90 ≥ W <120 lbs
[24] = 3% pregnancy rate, weight 120 ≥ W <150 lbs
[25] = 3% pregnancy rate, weight 150 ≥ W <180 lbs
[26] = 3% pregnancy rate, weight 180 ≥ W <210 lbs
[27] = 3% pregnancy rate, weight 210 ≥ W <240 lbs
[28] = 3% pregnancy rate, weight 240 ≥ W <270 lbs
[29] = 3% pregnancy rate, weight 270 ≥ W lbs

C#C[C@]1(O)CC[C@H]2[C@@H]3CCC4=CC(=O)CC[C@@H]4[C@H]3CC[C@@]21CC [LNG, levonorgestrel]
increase of free LNG circulating in the plasma ([1]; for every 10 μg per day of EE delivered): 300 picograms per ml
approximate steady state level of LNG ([1]; plasma): ~1500 picograms LNG per ml
LNG Level (healthy women; [2]): 74.7 µg/day
Required Dose (healthy women; [2]): 192 µg/day
LNG Level (healthy women; [3]): 52.7 µg/day
Required Dose (healthy women; [3]): 273 µg/day
LNG Level (healthy women; [4]): 67.1 µg/day
Required Dose (healthy women; [4]): 215 µg/day
LNG Level (healthy women; [5]): 41.1 µg/day
Required Dose (healthy women; [5]): 350 µg/day
LNG Level (healthy women; [6]): 26.6 µg/day
Required Dose (healthy women; [6]): 541 µg/day
LNG Level (healthy women; [7]): 38.9 µg/day
Required Dose (healthy women; [7]): 370 µg/day
LNG Level (healthy women; [8]): 25.6 µg/day
Required Dose (healthy women; [8]): 563 µg/day
LNG Level (healthy women; [9]): 120.0 µg/day
Required Dose (healthy women; [9]): 120 µg/day
LNG Level (healthy women; [10]): 67 µg/day and 66.9 µg/day
Required Dose (healthy women; [10]): 215 µg/day and 210 µg/day
LNG Level (healthy women; [11]): 46.1 µg/day
Required Dose (healthy women; [11]): 312 µg/day
LNG Level (healthy women; [12]): 39.6 µg/day
Required Dose (healthy women; [12]): 364 µg/day
LNG Level (healthy women; [13]): 45.4 µg/day
Required Dose (healthy women; [13]): 317 µg/day
LNG Level (healthy women; [14]): 31.5 µg/day
Required Dose (healthy women; [14]): 457 µg/day
LNG Level (healthy women; [15]): 34.1 µg/day
Required Dose (healthy women; [15]): 422 µg/day
LNG Level (healthy women; [16]): 152.0 µg/day
Required Dose (healthy women; [16]): 95 µg/day
LNG Level (healthy women; [17]): 106.9 µg/day
Required Dose (healthy women; [17]): 135 µg/day
LNG Level (healthy women; [18]): 136.1 µg/day
Required Dose (healthy women; [18]): 106 µg/day
LNG Level (healthy women; [19]): 83.3 µg/day
Required Dose (healthy women; [19]): 173 µg/day
LNG Level (healthy women; [20]): 53.8 µg/day
Required Dose (healthy women; [20]): 267 µg/day
LNG Level (healthy women; [21]): 79 µg/day
Required Dose (healthy women; [21]): 182 µg/day
LNG Level (healthy women; [22]): 51.8 µg/day
Required Dose (healthy women; [22]): 278 µg/day
LNG Level (healthy women; [23]): 241.7 µg/day
Required Dose (healthy women; [23]): 59 µg/day
LNG Level (healthy women; [24]): 135.6 µg/day
Required Dose (healthy women; [24]): 104 µg/day
LNG Level (healthy women; [25]): 93.5 µg/day
Required Dose (healthy women; [25]): 154 µg/day
LNG Level (healthy women; [26]): 80.3 µg/day
Required Dose (healthy women; [26]): 179 µg/day
LNG Level (healthy women; [27]): 92.0 µg/day
Required Dose (healthy women; [27]): 156 µg/day
LNG Level (healthy women; [28]): 63.8 µg/day
Required Dose (healthy women; [28]): 226 µg/day
LNG Level (healthy women; [29]): 69.2 µg/day
Required Dose (healthy women; [29]): 208 µg/day
LNG Required Dose (healthy women; BMI >17.5 ≤ 22.5): 95 to 192 µg/day
LNG Required Dose (healthy women; BMI >22.5 ≤ 27.5): 135 to 273 µg/day
LNG Required Dose (healthy women; BMI >27.5 ≤ 32.5): 106 to 215 µg/day
LNG Required Dose (healthy women; BMI >32.5 ≤ 37.5): 173 to 350 µg/day
LNG Required Dose (healthy women; BMI >37.5 ≤ 42.5): 267 to 541 µg/day
LNG Required Dose (healthy women; BMI >42.5 ≤ 47.5): 182 to 370 µg/day
LNG Required Dose (healthy women; BMI >47.5 ≤ 52.5): 278 to 563 µg/day
